Columns and labels:
Aorta [1] = assay: Vasodilatory activity in Wistar rat thoracic aorta rings assessed as inhibition of norepinephrine hydrochloride-induced contraction at 1 X 10 '-4 M; type: functional
Aorta [2] = assay: Vasodilatory activity in Wistar rat thoracic aorta rings assessed as inhibition of norepinephrine hydrochloride-induced contraction; type: functional, tissue-based

Row | Compound | inhibition at 100 µM (Aorta [1]) [%] | inhibition (Aorta [2])
1 | COc1ccccc1C(=O)OC1CCC(C)(C)c2ccc3c(c21)C(=O)C(=O)c1c(C)coc1-3 (stereo not given) | 7.58 | –
2 | Cc1coc2c1C(=O)C(=O)c1c-2ccc2c1C(OC(=O)Cc1ccccc1)CCC2(C)C (stereo not given) | -17.8 | –
3 | Cc1coc2c1C(=O)C(=O)c1c-2ccc2c1C(OC(=O)Cc1ccc(F)cc1)CCC2(C)C (stereo not given) | -13.3 | –
4 | Cc1coc2c1C(=O)C(=O)c1c-2ccc2c1C(OC(=O)Cc1ccc(O)cc1)CCC2(C)C (stereo not given) | -1.67 | –
5 | Cc1coc2c1C(=O)C(=O)c1c-2ccc2c1C(OC(=O)c1ccccc1O)CCC2(C)C (stereo not given) | 22.4 | Dose-dependent effect
6 | Cc1coc2c1C(=O)C(=O)c1c-2ccc2c1C(OC(=O)c1ccccc1)CCC2(C)C (stereo not given) | -9.41 | –
7 | COc1ccccc1CC(=O)OC1CCC(C)(C)c2ccc3c(c21)C(=O)C(=O)c1c(C)coc1-3 (stereo not given) | 12.8 | –
8 | COc1cccc(C(=O)OC2CCC(C)(C)c3ccc4c(c32)C(=O)C(=O)c2c(C)coc2-4)c1 (stereo not given) | -0.25 | –
9 | Cc1coc2c1C(=O)C(=O)c1c-2ccc2c1C(OC(=O)Cc1cccc(O)c1)CCC2(C)C (stereo not given) | -4.92 | –
10 | Cc1coc2c1C(=O)C(=O)c1c-2ccc2c1C(OC(=O)Cc1cccc(F)c1)CCC2(C)C (stereo not given) | -2.78 | –
11 | Cc1coc2c1C(=O)C(=O)c1c-2ccc2c1C(OC(=O)Cc1ccccc1F)CCC2(C)C (stereo not given) | 1.92 | –
12 | Cc1coc2c1C(=O)C(=O)c1c-2ccc2c1C(OC(=O)c1ccc(O)cc1)CCC2(C)C (stereo not given) | 9.39 | –
13 | Cc1coc2c1C(=O)C(=O)c1c-2ccc2c1C(OC(=O)Cc1ccccc1O)CCC2(C)C (stereo not given) | -0.37 | –
14 | Cc1coc2c1C(=O)C(=O)c1c-2ccc2c1CCCC2(C)C [TANSHINONE IIA] | 1.86 | –
15 | Cc1coc2c1C(=O)C(=O)c1c-2ccc2c1C(OC(=O)c1ccccc1F)CCC2(C)C (stereo not given) | 21.8 | Dose-dependent effect
16 | COc1cccc(CC(=O)OC2CCC(C)(C)c3ccc4c(c32)C(=O)C(=O)c2c(C)coc2-4)c1 (stereo not given) | 29.4 | Dose-dependent effect
17 | Cc1coc2c1C(=O)C(=O)c1c-2ccc2c1C(OC(=O)c1ccc(F)cc1)CCC2(C)C (stereo not given) | -3.3 | –
18 | Cc1coc2c1C(=O)C(=O)c1c-2ccc2c1C(OC(=O)c1cccc(F)c1)CCC2(C)C (stereo not given) | -3.59 | –
19 | COc1ccc(CC(=O)OC2CCC(C)(C)c3ccc4c(c32)C(=O)C(=O)c2c(C)coc2-4)cc1 (stereo not given) | 20.2 | –
20 | Cc1coc2c1C(=O)C(=O)c1c-2ccc2c1C(OC(=O)c1cccc(O)c1)CCC2(C)C (stereo not given) | 19.1 | –
21 | COc1ccc(C(=O)OC2CCC(C)(C)c3ccc4c(c32)C(=O)C(=O)c2c(C)coc2-4)cc1 (stereo not given) | 23.5 | Dose-dependent effect
